Reference: patent US9102636B2, “Analgesic compounds, compositions, and uses thereof” (Galleon Pharmaceuticals, Inc., priority 2010, dated 2015)
“And” between values parts separate entries of the source, which are not always exact repeats. Equal entries are not always repeated. “Also recorded” adds a separate entry of the source.

What was measured:
Type in all cases: in vivo, rat
[1] = tested on: FCA induced tactile allodynia; test: FCA induced tactile allodynia (electronic von Frey)
Procedure: (§1) Compound 2 was evaluated in the rat Freund's complete adjuvant (FCA) model of inflammatory pain. The rat Freund's complete adjuvant (FCA) intraplantar model of inflammatory pain produces behaviors similar to those observed in patients and has been widely used to assess novel pharmacological treatments (Lam et al., 2008, J Ethnopharmacol. 120:44-50). The positive control was celecoxib (TRC, Montreal), and the negative control was vehicle (0.5% methyl cellulose, in phosphate buffered saline). […] The Hargreaves apparatus was obtained from Ugo Basile, Italy. The Freund's complete adjuvant was obtained from Sigma, St. Louis, and the electronic von frey was obtained from Stoelting, Ill. For this assay, paw withdrawal latency to a thermal stimulus was assessed using a radiant heat source (Ugo Basile, Italy) aimed at the plantar surface of the left hind paw (Hargreaves test; […] Paw withdrawal thresholds to a non-noxious tactile stimulus was assessed using an electronic von Frey apparatus that presented an increasing mechanical force to the plantar surface of the hind paw. Paw volume was measured by displacement of water and assuming a tissue density equal to that of water. […] Celecoxib (30 mg/kg p.o.) served as the positive control. […] After induction of anesthesia, the injection site was prepared in a sterile manner and 100 μl of a 50% suspension of FCA injected. After injection, animals were weighed and allowed to recover before being returned to their home cages. Statistical significance was determined on untransformed data using a two-way analysis of variance (Graphpad Prism, NC). Significant main effects were analyzed further by subsequent Bonferronni post-hoc test. The level of significance was set at p<0.05. Data are shown as mean±S.E.M. (with an asterisk to denote significance as compared to vehicle treated controls).

FCA induced edema = FCA induced edema (paw volume)
Procedure: as §1

[2] = tested on: Carrageenan-induced thermal hyperalgesia; test: Carrageenan-induced thermal hyperalgesia (Hargreaves); conditions: for Paw withdrawal latency: Pre-Cg, individual rats, FIG. 21A
Procedure: The effect of Compound 2 in the rat carrageenan model of acute inflammatory pain was evaluated. The intraplantar carrageenan model of acute inflammatory pain in the rat results in behaviors similar to that observed in patients and has been widely used to assess novel pharmacological treatments (Whiteside et al., 2005, J. Pharmacol. Exp. Ther. 314:1234-1240). The objective of this study was to evaluate the ability of Compound 2 to reverse or prevent development of thermal hyperalgesia and edema in the rat carrageenan model of acute inflammatory pain. The positive control was indomethacin (Sigma, St. Louis), and the negative control was vehicle (0.5% methyl cellulose). […] The Hargreaves apparatus was obtained from Ugo Basile, Italy, and the lamba-carrageenan was obtained from Sigma, St. Louis. For this assay, paw withdrawal latency to a thermal stimulus was assessed using a radiant heat source (Ugo Basile, Italy) aimed at the plantar surface of the left hind paw (Hargreaves test). […] Paw volume was measured by displacement of water and assuming a tissue density equal to that of water. Baseline latencies were taken prior to carrageenan administration and re-assessed 4 h later. Compound 2 or vehicle was administered (10 and 30 mg/kg, p.o.) 3 hrs after carrageenan (curative) and behavior assessed 1 hr later. […] Indomethacin (positive control, 30 mg/kg p.o.) was administered prior to carrageenan and behavior assessed 4 hrs post-carrageenan. […] After induction of anesthesia, the injection site was prepared in a sterile manner and 50 μl of a 2% Jamba-carrageenan was injected. After injection, animals were weighed and allowed to recover before being returned to their home cages. Statistical significance was determined on untransformed data using a two-way analysis of variance (Graphpad Prism, NC). Significant main effects were analyzed further by subsequent Bonferronni post-hoc test. The level of significance was set at p<0.05. Data are shown as mean±S.E.M. (with an asterisk to denote significance as compared to vehicle treated controls).

ataxia (rotarod) = test: Accelerating rotarod assay of ataxia (latency to fall); conditions: for Latency to fall: maximum 300 seconds, individual animals
Procedure: Compound 2 was evaluated in a rat accelerating rotarod model of ataxia. Ataxia is a common clinical problem with CNS-active compounds and can often confound interpretation of efficacy in preclinical pain models. The rotarod assay of ataxia has been widely used to assess the side-effect liability of novel pharmacological treatments (Jones & Roberts, 1968, J. Pharm. […] The positive control was haloperidol (Sigma, St. […] Male Sprague-Dawley Rats (Harlan, Ill.) were 250-300 g at time of dosing. Rotarod was obtained from IITC, CA. To examine the potential effects of Compound 2 on motor performance, rats were tested on an accelerating rotarod (IITC, Ca). […] Rats received two timed training trials (averaged to give the reported baseline) on the first day, then 24 hr later rats were administered Compound 2 (30, 100 and 300 mg/kg, p.o.), haloperidol (3 mg/kg, p.o.), the positive control, or vehicle. […] Statistical significance was determined on untransformed data using a two-way analysis of variance (Graphpad Prism, NC). Significant main effects were analyzed further by subsequent Bonferronni post-hoc test. The level of significance was set at p<0.05. Data are shown as mean±S.E.M. (with an asterisk to denote significance as compared to vehicle treated controls).

CC1(C)SC(Nc2ccccc2O)=N[C@@H]1C(=O)O [Compound 2, (R)-2-(2-hydroxyphenylamino)-thiazoline-5,5-dimethyl-4-carboxylic acid]
Paw withdrawl threshold ([1]; 30 (min post-dose), 30 mg/kg p.o. 24 hours post-FCA, 30 mg/kg): 19.3 g and 32.6 g and 27.3 g and 30.2 g and 26.3 g and 19.5 g
Paw withdrawl threshold ([1]; 30 (min post-dose), 100 mg/kg p.o. 24 hours post-FCA, 100 mg/kg): 28.6 g and 27.9 g and 19.3 g and 34.6 g and 31.6 g and 21 g
Paw withdrawl threshold ([1]; 60 (min post-dose), 3 mg/kg p.o. 24 hours post-FCA, 3 mg/kg): 22 g and 16.5 g and 21.4 g and 15.7 g and 22.3 g and 18 g
Paw withdrawl threshold ([1]; 60 (min post-dose), 30 mg/kg p.o. 24 hours post-FCA, 30 mg/kg): 24 g and 24.2 g and 26.5 g and 21.6 g and 27.4 g and 31.1 g
Paw withdrawl threshold ([1]; 60 (min post-dose), 100 mg/kg p.o. 24 hours post-FCA, 100 mg/kg): 31.2 g and 27.5 g and 35.3 g and 29.1 g and 30.3 g and 34.6 g
Paw withdrawl threshold ([1]; BL(D1), 24 hours post-FCA before dosing, 3 mg/kg group, 3 mg/kg): 20.5 g and 15.3 g and 18.5 g and 16.5 g and 17.3 g and 15.8 g
Paw withdrawl threshold ([1]; BL(D1), 24 hours post-FCA before dosing, 30 mg/kg group, 30 mg/kg): 15 g and 19.2 g and 18.2 g and 22.5 g and 17.8 g and 16.5 g
Paw withdrawl threshold ([1]; BL(D1), 24 hours post-FCA before dosing, 100 mg/kg group, 100 mg/kg): 12.8 g and 13.9 g and 16 g and 19.3 g and 23.51 g and 12.6 g
Paw withdrawl threshold ([1]; baseline (pre-FCA), 3 mg/kg group, individual rats, 3 mg/kg): 36.1 g and 32.4 g and 35.8 g and 33.4 g and 34.4 g and 30.9 g
Paw withdrawl threshold ([1]; baseline (pre-FCA), 10 mg/kg group, individual rats, 10 mg/kg): 28.6 g and 26.67 g and 37.9 g and 31.3 g and 39 g and 31.8 g
Paw withdrawl threshold ([1]; baseline (pre-FCA), 30 mg/kg group, individual rats, 30 mg/kg): 33.2 g and 34.9 g (2×) and 36.6 g and 35.6 g and 33.4 g
Paw withdrawl threshold ([1]; baseline (pre-FCA), 100 mg/kg group, individual rats, 100 mg/kg): 31.8 g and 26.6 g and 27.6 g and 33.33 g and 37.8 g and 31.9 g
Paw withdrawal latency (s), FIG. 18B ([1]; baseline (prior to FCA), individual rats): 29.6 s (2×) and 32.5 s and 29.8 s and 27.5 s and 31.4 s
Paw withdrawal latency (s), FIG. 18B ([1]; day 1, compound 2 25 mg/kg i.v. preemptive, individual rats, 25 mg/kg): 36.7 s and 26.7 s and 38.9 s and 25 s and 27 s and 29 s
Paw withdrawal latency (s), FIG. 18B ([1]; day 3, compound 2 25 mg/kg i.v. preemptive, individual rats, 25 mg/kg): 29.8 s and 28 s and 30 s and 27.7 s and 23.5 s and 33.8 s
Paw withdrawal latency (s), FIG. 18B ([1]; day 4, compound 2 25 mg/kg i.v. preemptive, individual rats, 25 mg/kg): 25 s and 27.23 s and 36.5 s and 31.3 s and 31.9 s and 24.3 s
reversal of FCA-induced tactile allodynia (finding in words) ([1]; rat, 3, 10, 30 and 100 mg/kg p.o. curative, 24 hours post-FCA, significant at 10, 30 and 100 mg/kg, 30 and 60 minutes): significant reversal of FCA induced tactile allodynia; also recorded: able to reverse established inflammatory tactile allodynia; also recorded: significantly reversed
FCA-induced tactile allodynia (finding in words) ([1]; rat, p.o. single dose 25 mg/kg preemptive): significantly prevented
FCA tactile allodynia (finding in words) ([1]; rat, single dose 25 mg/kg i.v. preemptive, significant 24, 48 and 72 hours post-FCA, 25 mg/kg): prevented the development; also recorded: significantly prevented
Paw volume (FCA induced edema; 24 hrs post, compound 2 10 mg/kg p.o. preemptive, FIG. 20A, 10 mg/kg): 2.7 mL and 2.6 mL and 3.1 mL
Paw volume (FCA induced edema; 24 hrs post, compound 2 30 mg/kg p.o. preemptive, FIG. 20A, 30 mg/kg): 2.1 mL and 2.9 mL and 3 mL
Paw volume (FCA induced edema; 48 hrs post, compound 2 10 mg/kg p.o. preemptive, FIG. 20A, 10 mg/kg): 2.6 mL and 2.5 mL and 2.9 mL and 3.2 mL
Paw volume (FCA induced edema; 48 hrs post, compound 2 30 mg/kg p.o. preemptive, FIG. 20A, 30 mg/kg): 2.5 mL and 2.8 mL and 3.1 mL and 2.7 mL and 2.9 mL
Paw volume (FCA induced edema; FCA/Compound 2, 10 mg/kg p.o., dosed 24 hours post-FCA, Pre-FCA (baseline), individual animals): 1.7 mL (2×) and 1.6 mL (2×) and 1.8 mL (3×) and 1.5 mL
Paw volume (FCA induced edema; FCA/Compound 2, 10 mg/kg p.o., 1 hr (D2), individual animals): 2.7 mL (3×) and 2.9 mL and 2.5 mL and 2.8 mL and 2.3 mL and 3.2 mL
Paw volume (FCA induced edema; FCA/Compound 2, 10 mg/kg p.o., 1 hr, individual animals): 2.9 mL (2×) and 3.1 mL (2×) and 2.7 mL (2×) and 2.8 mL and 3 mL
Paw volume (FCA induced edema; FCA/Compound 2, 10 mg/kg p.o., 3 hrs (D2), individual animals): 2.7 mL (2×) and 3 mL and 2.6 mL and 2.5 mL and 2.8 mL and 2.4 mL and 3.2 mL
Paw volume (FCA induced edema; FCA/Compound 2, 10 mg/kg p.o., 3 hrs, individual animals): 2.9 mL (4×) and 3.1 mL and 2.7 mL and 2.4 mL and 3.2 mL
Paw volume (FCA induced edema; FCA/Compound 2, 10 mg/kg p.o., Pre-Drug (D2), individual animals): 2.7 mL (2×) and 3 mL and 2.6 mL (2×) and 2.8 mL and 2.4 mL and 3.2 mL
Paw volume (FCA induced edema; FCA/Compound 2, 10 mg/kg p.o., Pre-Drug, individual animals): 3.1 mL (2×) and 2.8 mL (2×) and 2.9 mL and 3 mL and 2.7 mL and 3.4 mL
Paw volume (FCA induced edema; FCA/Compound 2, 30 mg/kg p.o., dosed 24 hours post-FCA, Pre-FCA (baseline), individual animals): 1.7 mL (4×) and 1.8 mL (2×) and 1.5 mL and 1.9 mL
Paw volume (FCA induced edema; FCA/Compound 2, 30 mg/kg p.o., 1 hr, individual animals): 2.6 mL
Paw volume (FCA induced edema; FCA/Compound 2, 30 mg/kg p.o., Pre-Drug, individual animals): 2.8 mL (2×) and 3 mL (2×) and 2.9 mL and 3.2 mL and 2.6 mL and 3.4 mL
Paw volume (FCA induced edema; Pre-FCA, compound 2 10 mg/kg p.o. preemptive group, individual rats, FIG. 20A, 10 mg/kg): 1.7 mL (2×) and 1.6 mL and 1.8 mL (2×) and 1.9 mL
Paw volume (FCA induced edema; Pre-FCA, compound 2 30 mg/kg p.o. preemptive group, individual rats, FIG. 20A, 30 mg/kg): 1.6 mL and 1.7 mL (2×) and 1.9 mL and 1.8 mL (2×)
FCA-induced edema (finding in words) (FCA induced edema; rat, 10 and 30 mg/kg p.o., preemptive and curative (24 hours post-FCA)): did not have a statistically significant effect; also recorded: did not affect edema
Paw withdrawal latency ([2]; compound 2 10 mg/kg group, 10 mg/kg): 19.8 s and 15.34 s and 22.07 s and 17.39 s and 31.03 s and 14.07 s
Paw withdrawal latency ([2]; compound 2 30 mg/kg group, 30 mg/kg): 23.87 s and 12.41 s and 16.08 s and 28.86 s and 18.1 s and 22.77 s and 17.58 s
carrageenan-induced thermal hyperalgesia, curative (finding in words) ([2]; rat, 10 and 30 mg/kg p.o. 3 hours post-carrageenan): without significantly reversing thermal hyperalgesia; also recorded: did not significantly reverse thermal hyperalgesia
Latency to fall (ataxia (rotarod); compound 2 30 mg/kg p.o., Baseline, 30 mg/kg): 70 sec and 108.5 sec and 72 sec and 68 sec (2×) and 52 sec and 49 sec and 60.5 sec and 48.5 sec and 47.5 sec (2×) and 97 sec
Latency to fall (ataxia (rotarod); compound 2 30 mg/kg p.o., Post-Drug (1 hr), 30 mg/kg): 39 s and 99 s and 72 s and 94 s and 66 s and 81 s and 133 s and 120 s and 56 s and 115 s and 50 s and 70 s
Latency to fall (ataxia (rotarod); compound 2 100 mg/kg p.o., Baseline, 100 mg/kg): 43.5 s and 75.5 s and 55 s and 63 s and 60.5 s and 73.5 s and 73 s and 72 s and 54.5 s and 54 s and 46.5 s and 53 s
Latency to fall (ataxia (rotarod); compound 2 100 mg/kg p.o., Post-Drug (1 hr), 100 mg/kg): 86 sec and 64 sec and 45 sec (2×) and 111 sec and 91 sec and 221 sec and 72 sec (2×) and 66 sec and 20 sec and 199 sec
Latency to fall (ataxia (rotarod); compound 2 300 mg/kg p.o., Baseline, 300 mg/kg): 84 sec and 76.5 sec and 57 sec and 86.5 sec (2×) and 81.5 sec and 79 sec and 71.5 sec and 61 sec and 97.5 sec and 89 sec
Latency to fall (ataxia (rotarod); compound 2 300 mg/kg p.o., Post-Drug (1 hr), 300 mg/kg): 184 sec (2×) and 55 sec (2×) and 112 sec and 105 sec and 124 sec and 175 sec and 43 sec and 131 sec and 78 sec
latency to fall, accelerating rotarod (finding in words) (ataxia (rotarod); rat, 30, 100 and 300 mg/kg p.o., 1 hr post-dosing): did not significantly decrease latency to fall; also recorded: did not significantly reduce latency to fall
